Test results as given in US11674967B2, “Method of identifying potential inhibitors of APO TNFα trimers” (UCB BIOPHARMA SRL, priority 2015, dated 2023).

Columns and labels:
human TNFα trimer = molecular target: T1, human TNFα trimer (Homo sapiens, UniProt P01375); assay: RMSD of crystal structure of compound-bound TNFα trimer to Reference Structure Compound 34; settings: Cα atoms of β-sheet residues, all three subunits, PyMOL
T1 construct: His6Smt-tag (N, cleaved yes); made in house; host or cells: E. coli (vector pEMB54)
T1 sequence (P01375 with tags, fused parts or gaps): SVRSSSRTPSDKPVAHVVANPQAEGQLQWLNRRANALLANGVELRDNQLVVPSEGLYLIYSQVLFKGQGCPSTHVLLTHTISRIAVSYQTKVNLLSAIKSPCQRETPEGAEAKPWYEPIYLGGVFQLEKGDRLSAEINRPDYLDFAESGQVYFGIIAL
Description: Cells were pre-cultured at 37° C. in rich media, induced with the addition of 0.1% arabinose and allowed to express overnight at 25° C. in vector pEMB54. This vector introduces a cleavable N-terminal His6Smt-tag. The cells were lysed and purified by Ni-NTA chelate chromatography. The fusion protein was eluted with buffer containing imidazole and cleaved by the addition of protease. The final cleaved TNFα protein was purified by a subtractive Ni chelate chromatography step to remove the fusion tag and further purified by size exclusion chromatography to remove the remaining impurities. The final TNFα product was typically concentrated to 20.0 mg/ml and flash frozen in liquid nitrogen.
Purified human TNF[…] (20.0 mg/ml, VC 2043) was diluted to 4-7 mg/ml in 10 mM HEPES pH 7.5, 150 mM NaCl buffer followed by overnight incubation at 4° C. with 0.3-0.5 mM compound (1-2 molar excess). The TNF[…] compound complexes were crystallized by sitting drop vapor diffusion by mixing 0.5 μl of complex with 0.5 μl of 21.44% PEG 3350, 100 mM Tris, pH 9.0 (UCB1474433); or 22.0% PEG 3350, 100 mM glycine, 100 mM Tris, pH 8.5 (UCB1480595); or 25.6% PEG 3350, 100 mM Tris, pH 8.3, 3% xylitol (UCB5143079) or other formulation with varying precipitant concentration or additives over 100 μl of the same crystallization solution. Other formulations for other compounds include a range of PEG 3350 of 8-28%. Other PEG-like additives include PEG 1000 (8-18%) or PEG 2000 (10-13%). Other additives include MPD (5-13%) or 200 mM NaCl. Other buffers include 100 mM Hepes (pH 7-8), 100 mM Tris or bis-Tris (pH 6.7-9.0). Other non-PEG 3350 crystallization solutions consist of PEG 2000 (14-19%), 100 mM Hepes, pH 8, 25 mM arginine; or 17% PEG 10000, 200 mM ammonium acetate, 100 mM bis-Tris, pH 5.5; or 30% PEG 2000 MME, 100 mM sodium acetate, 100 mM Mes, pH 6.5.
Crystals were briefly soaked in ethylene glycol and/or vitrified directly in liquid nitrogen for data collection.
X-ray diffraction data were collected from a synchrotron source at a wavelength, most frequently, of 0.976484 Å and recorded on CCD detector. […] The structure of the human TNF[…] (VC 2043) complexed with compound was solved by molecular replacement using Phaser with input model of 1TNF. […] Iterative manual model building using Coot (Emsley and Cowtan, 2004) and Refmac (Murshudov et al., 1997) continued until R and Rfree converged. […] The resolution of the structures was most frequently around 2.15 Å.
Root mean squared deviation (RMSD) calculations were carried out to ascertain the distance of each of the crystal structures of distorted TNFα trimer to a reference structure.
RMSD calculations were done using the program PyMOL (www.pymol.org). In this example version 1.7. was used. The cmd.rms PyMOL command was used with defined pairs of atoms. The atoms used were the backbone Ca's of certain residues within the β-strands of TNFα. The residue numbers used are shown below:
These residue numbers are those within the published structure of TNFα with PDB code 1A8M and within the distorted TNFα trimer structures of this invention. The residue numbers are also according to the sequence of SEQ ID NO:36. The residues in each of the three chains with the TNFα structures, (labelled A, B, and C according to our instructions) were used.
The command cmd.rms was used with the following arguments:
rms=cmd.rms(“(moving)”, “(target)”, matchmaker=4, quiet=0, cycles=0)
where “(moving)” is the selection of atoms in a given TNFα structure and “(target)” is the selection of equivalent atoms within the reference structure.
The RMSD was calculated for each structure against all others. The “representative structure” or “Reference Structure” was chosen to be the one with the lowest sum RMSD to all others—the structure “Compound 34” or “Compound34.pdb”.
Reference Structure (Compound 34) and Query Structure (Compound 64) were overlaid (see FIG. 17 with Reference Structure emboldened) by: • 1. […]

TNFR2 = assay: Membrane TNF - TNFR2 signalling (NS0-mTNF cells with expanded primary human T cells); type: cell-based; settings: compound bound to membrane TNFα on NS0 cells
Description: A murine B cell line (NS0-mTNF) stably expressing non-cleavable human membrane TNF due to a mutation at the TACE cleavage site was used to trigger TNFR2 signalling in PHA-L and IL-2 expanded primary human T cells. […] TNFR1 was also present on these cells but was blocked using a UCB mouse anti-human-TNFR1 antibody 5R16.
NS0-mTNF cells were cultured with 10 μM NCEs for 1 hour to allow binding of Compounds to membrane TNF. T cells were then mixed with the NS0-mTNF cells and following a brief spin to allow cell-cell contact, cells were incubated for 5 min and then lysed in lysis buffer. […] First TRAF-2 recruitment to the TNFR2 receptor was measured in Co-immunoprecipitation experiments as a measure of membrane proximal signalling. After lysis of cells TNFR2 was isolated from the lysate using polyclonal goat anti-human TNFR2 antibodies followed by protein G sepharose bead purification. TNFR2 associated TRAF-2 was then measured in immunoblots after running the purified TNFR2 preparation on a SDS-PAGE. In addition, the whole cell lysate was also sampled for the presence of pNFκB using SDS-PAGE and pNFκB specific immunoblots.
• PBMC from 3 three different donors were cultured in 6 well plates with 10×10^6 cells per well in 5 ml of RPMI1640 supplemented with 10% FCS, 1% human serum, HEPES GlutaMAX, 25 U/ml hIL-2 (Roche) and 2 μg/ml PHA-L (Sigma) to grow out T cells • after 3 days cells were resuspended and cultured in 75 cm^2 flasks with the same media as above, but lacking the PHA-L • growth of culture was monitored and media was changed every 3 days.
This is a 2× solution • prepare 500 μl of 10×10^6 NS0-wt cells • After 1 h add 500 μl human T cells (50×10^6 cells/test) in human media at 37° C. T cells were preincubated for 15 min @37° C. with 50 μg/ml 5R16 anti-TNFR1 Fab-PEG to block signalling via TNFR1 prior adding to the NS0 cells. […]

SMILES | RMSD (Å) with Compound 34 (human TNFα trimer) [Å] | TNFR2 specific membrane proximal (TRAF-2 recruitment to TNFR2) and downstream (pNFκB) signalling (TNFR2)
Cc1ccc(C)c(Cn2c(C(O)c3ccncc3)nc3ccccc32)c1 (stereo not drawn) [Compound 3] | 0.33 | 
Cc1ccc(C)c(Cn2c(C(O)c3ccncc3)nc3ccc(-c4cnn(C)c4)cc32)c1 (stereo not drawn) [Compound 15] | 0.24 | does not impair
